Assay results reported in ChEMBL document CHEMBL1201862, “PubChem BioAssay data set” (2004).
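In this assay, cells in 96-well plates receive the compound at five concentrations for 48 hours. Endpoints are linearly interpolated between the surrounding concentrations. Here, GI50 denotes the concentration required for 50% inhibition of growth.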 The source made the active and inactive calls. Cut-off read from the data, not from the text of the source: active = GI50 up to about 1.1 µM and inactive = higher.

How the values were obtained:
Test in all cases: NCI-60 cell line screen, 48 h
LOX IMVI = system: LOX IMVI
A498 = system: A498
SNB-75 = system: SNB-75
SK-MEL-5 = system: SK-MEL-5
786-0 = system: 786-0
A549 = system: A549
NCI-H460 = system: NCI-H460
UACC-62 = system: UACC-62
NCI-H23 = system: NCI-H23
SK-MEL-28 = system: SK-MEL-28
TK-10 = system: TK-10
PC-3 = system: PC-3
HCT-116 = system: HCT-116
DMS-273 = system: DMS-273
OVCAR-5 = system: OVCAR-5
SF-295 = system: SF-295
SR = system: SR
M14 = system: M14
SF-539 = system: SF-539
MOLT-4 = system: MOLT-4

Row | Compound | GI50 (LOX IMVI) | GI50 (A498) | GI50 (SNB-75) | GI50 (SK-MEL-5) | GI50 (786-0) | GI50 (A549) | GI50 (NCI-H460) | GI50 (UACC-62) | GI50 (NCI-H23) | GI50 (SK-MEL-28) | GI50 (TK-10) | GI50 (PC-3) | GI50 (HCT-116) | GI50 (DMS-273) | GI50 (OVCAR-5) | GI50 (SF-295) | GI50 (SR) | GI50 (M14) | GI50 (SF-539) | GI50 (MOLT-4)
1 | O=C1c2ccccc2C(=O)c2sc(Nc3ccccc3Cl)nc21 | 2.6 µM (inactive) | 16.2 µM (inactive) | 13.6 µM (inactive) | 5.87 µM (inactive) | 14.6 µM (inactive) | 19.8 µM (inactive) | 12.9 µM (inactive) | 7.4 µM (inactive) | 4.98 µM (inactive) | 15.1 µM (inactive) | 19.7 µM (inactive) | 12.7 µM (inactive) | 10.7 µM (inactive) | 13.5 µM (inactive) | 19.8 µM (inactive) | 16.1 µM (inactive) | 3930 nM (inactive) | 5.36 µM (inactive) | 15.8 µM (inactive) | 3.93 µM (inactive)
2 | CN(C)CCNc1ccc(CO)c2sc3ccc(O)cc3c(=O)c12 | 1.11 µM (active) | 6.89 µM (inactive) | 2.42 µM (inactive) | 1.29 µM (inactive) | 1.13 µM (inactive) | 0.286 µM (active) | 0.0259 µM (active) | 1.34 µM (inactive) | 0.869 µM (active) | 7.8 µM (inactive) | 8.77 µM (inactive) | 1.32 µM (inactive) | 1.12 µM (inactive) | 0.615 µM (active) | 5.26 µM (inactive) | 1 µM (active) | < 15.7 nM (active) | 3.01 µM (inactive) | 0.459 µM (active) | 0.0262 µM (active)
3 | CC[C@@H](C)[C@H]([C@H](CC(=O)N1CCC[C@@H]1[C@@H](OC)[C@H](C)C(=O)N[C@H](Cc1ccccc1)c1nccs1)OC)N(C)C(=O)[C@H](NC(=O)[C@@H](C(C)C)N(C)C)C(C)C | 0.000161 µM (active) | 0.000228 µM (active) | 0.000161 µM (active) | 2.51e-05 µM (active) | 0.000184 µM (active) | 0.000121 µM (active) | 5.9e-05 µM (active) | 0.000175 µM (active) | 0.000224 µM (active) | 0.00069 µM (active) | 0.00181 µM (active) | < 0.01 µM (active) | 0.000125 µM (active) | 0.000159 µM (active) | 0.0005 µM (active) | 0.000146 µM (active) | 0.0275 nM (active) | 0.000165 µM (active) | 0.000168 µM (active) | 0.000229 µM (active)
4 | COC(=O)N/N=C(/c1nc2ccc([N+](=O)[O-])cc2nc1O)C(O)c1ccc(OC)c(OC)c1 (stereo not given) | 28.5 µM (inactive) | > 67.8 µM (inactive) | > 100 µM (inactive) | 29.8 µM (inactive) | > 69 µM (inactive) | > 100 µM (inactive) | 59 µM (inactive) | > 100 µM (inactive) | > 76.7 µM (inactive) | > 100 µM (inactive) | > 100 µM (inactive) | 76.2 µM (inactive) | 97.1 µM (inactive) | 25 µM (inactive) | > 100 µM (inactive) | 98.6 µM (inactive) | 19500 nM (inactive) | > 100 µM (inactive) | > 100 µM (inactive) | 33 µM (inactive)
